Tests used:
[1] = Assay 2. Stability in Simulated Intestinal Fluid (SIF); type: in vitro ADME; details: SIF pH 6.7 with pancreatin, 1 μM, 37° C.
Protocol: Assay 2. Stability of acylated active agents in Simulated Intestinal Fluid (SIF). This assay was used to assess the stability of an acylated active agent in a small intestine. Phosphate buffer was prepared by dissolving 0.42 g of sodium hydroxide pellets and 3.95 g of monobasic sodium phosphate monohydrate and 6.19 g of sodium chloride in ultrapure water (MilliQ®, Millipore Sigma, Darmstadt, Germany). The pH was adjusted to 6.7 using aq. HCl and aq. NaOH, as necessary, and the solution was diluted with ultrapure water to produce 1 L of the pH 6.7 buffer. 112 mg FaSSIF powder (Biorelevant™, London, UK) was dissolved in 50 mL of the pH 6.7 buffer. 2 to 3 mL of the resulting solution were then added to 500 mg pancreatin (Millipore Sigma, Darmstadt, Germany). The resulting mixture was agitated by finger tapping the vessel containing the mixture until milky suspension formed. At this time, the remainder of the 50 mL FaSSiF/pH 6.7 buffer solution was added. The resulting suspension was flipped upside down 10 times to produce SIF, which was used fresh. Test compounds were dissolved in DMSO stock to 1 mM. An aliquot of the DMSO stock solution was removed and diluted in the SIF media in 15 mL falcon tubes to produce a mixture with a tested compound concentration of 1 μM. A 1 mL aliquot was immediately removed and diluted once with 1 volume of acetonitrile for T0 timepoint. The mixture was sealed and agitated at 37° C. in an incubator. Aliquots (1 mL) were removed at regular intervals and immediately quenched by the addition of 1 volume of acetonitrile. The resulting samples were analyzed by LC/MS to determine degradation rates.

[2] = Assay 1. Stability in Simulated Gastric Fluid (SGF); type: in vitro ADME; details: SGF pH 1.6 with pepsin, 1 μM, 37° C.
Protocol: Assay 1. Stability of acylated active agents in Simulated Gastric Fluid (SGF). This assay was used to assess the stability of an acylated active agent in a stomach.
Medium was prepared by dissolving 2 g of sodium chloride in 0.6 L in ultrapure water (MilliQ®, Millipore Sigma, Darmstadt, Germany). The pH was adjusted to 1.6 with 1N hydrochloric acid, and the volume was then adjusted to 1 L with purified water.
60 mg FaSSIF powder (Biorelevant™, London, UK) were dissolved in 500 mL buffer (above). Pepsin was added (0.1 mg/mL) (Millipore Sigma, Darmstadt, Germany), and the solution was stirred. The resulting SGF media were used fresh for each experiment.
Test compounds were dissolved in DMSO stock to 1 mM. An aliquot of the DMSO stock solution was removed and diluted in the SGF Media in 15 mL falcon tubes to generate a total compound concentration of 1 μM. A 1 mL aliquot was immediately removed and diluted once with 1 volume of acetonitrile for T0 timepoint. The mixture was sealed and mixed at 37° C. in an incubator. Aliquots (1 mL) were removed at regular intervals and immediately quenched by the addition of 1 volume of acetonitrile. The resulting samples were analyzed by LC/MS to determine degradation rates in SGF.

## CC(=O)Oc1ccc(C2CC(=O)c3c(OC(C)=O)cc(OC(C)=O)cc3O2)cc1 (stereo not shown) [Compound 9, [4-(5,7-diacetoxy-4-oxo-chroman-2-yl)phenyl] acetate]
[1]
  Assay 2 (SIF) (% @ Remaining 4 hours): A (<25% of the tested compound remaining)
[2]
  Assay 1 (SGF) (% Remaining @ 1 hour): C (>75% of the tested compound remaining)

## CCCC(=O)Oc1ccc(C2CC(=O)c3c(OC(=O)CCC)cc(OC(=O)CCC)cc3O2)cc1 (stereo not shown) [Compound 10, [4-[5,7-di(butanoyloxy)-4-oxo-chroman-2-yl]phenyl] butanoate]
[1]
  Assay 2 (SIF) (% @ Remaining 4 hours): A (<25% of the tested compound remaining)
[2]
  Assay 1 (SGF) (% Remaining @ 1 hour): B (25-75% of the tested compound remaining)

## CCC(=O)Oc1cc(OC(=O)CC)c2c(=O)c(OC(=O)CC)c(-c3cc(OC(=O)CC)c(OC(=O)CC)c(OC(=O)CC)c3)oc2c1 [Compound 13, [4-oxo-3,5-di(propanoyloxy)-2-[3,4,5-tri(propanoyloxy)phenyl]chromen-7-yl] propanoate]
[1]
  Assay 2 (SIF) (% @ Remaining 4 hours): A (<25% of the tested compound remaining)
[2]
  Assay 1 (SGF) (% Remaining @ 1 hour): B (25-75% of the tested compound remaining)

## CCC(=O)O[C@@H]1[C@H](OC(=O)CC)[C@H](C)OC(Oc2ccccc2C(=O)O)[C@H]1OC(=O)CC (stereo partly drawn) [Compound 25, 2-(((3S,4R,5R,6S)-6-methyl-3,4,5-tris(propionyloxy)tetrahydro-2H-pyran-2-yl)oxy)benzoic acid]
[1]
  Assay 2 (SIF) (% @ Remaining 4 hours): C (>75% of the tested compound remaining)
[2]
  Assay 1 (SGF) (% Remaining @ 1 hour): C (>75% of the tested compound remaining)

## CCC(=O)O[C@@H]1[C@@H](OC(=O)CC)[C@H](Oc2ccccc2C(=O)O)OC[C@@H]1OC(=O)CC [Compound 26, 2-(((2S,3R,4S,5S)-3,4,5-tris(propionyloxy)tetrahydro-2H-pyran-2-yl)oxy)benzoic acid]
[1]
  Assay 2 (SIF) (% @ Remaining 4 hours): A (<25% of the tested compound remaining)
[2]
  Assay 1 (SGF) (% Remaining @ 1 hour): C (>75% of the tested compound remaining)

## CCC(=O)O[C@@H]1[C@@H](OC(=O)CC)[C@H](Oc2ccccc2C(=O)O)OC[C@H]1OC(=O)CC [Compound 27, 2-(((2S,3R,4S,5R)-3,4,5-tris(propionyloxy)tetrahydro-2H-pyran-2-yl)oxy)benzoic acid]
[1]
  Assay 2 (SIF) (% @ Remaining 4 hours): B (25-75% of the tested compound remaining)
[2]
  Assay 1 (SGF) (% Remaining @ 1 hour): C (>75% of the tested compound remaining)

## CCCC(=O)O[C@@H]1[C@@H](OC(=O)CCC)[C@@H](Oc2ccccc2C(=O)O)OC[C@@H]1OC(=O)CCC [Compound 31, 2-(((2R,3R,4S,5S)-3,4,5-tris(butyryloxy)tetrahydro-2H-pyran-2-yl)oxy)benzoic acid]
[1]
  Assay 2 (SIF) (% @ Remaining 4 hours): A (<25% of the tested compound remaining)
[2]
  Assay 1 (SGF) (% Remaining @ 1 hour): C (>75% of the tested compound remaining)

## CCCC(=O)O[C@@H]1[C@H](OC(=O)CCC)[C@H](C)OC(Oc2ccc(N)cc2C(=O)O)[C@H]1OC(=O)CCC (stereo partly drawn) [Compound 41, 5-amino-2-(((3S,4R,5R,6S)-3,4,5-tris(butyryloxy)-6-methyltetrahydro-2H-pyran-2-yl)oxy)benzoic acid]
[1]
  Assay 2 (SIF) (% @ Remaining 4 hours): C (>75% of the tested compound remaining)
[2]
  Assay 1 (SGF) (% Remaining @ 1 hour): C (>75% of the tested compound remaining)

## CCCC(=O)O[C@@H]1[C@@H](OC(=O)CCC)[C@@H](OC(=O)CCc2c[nH]c3ccccc23)OC[C@@H]1OC(=O)CCC [Compound 81, (2R,3R,4S,5S)-4,5-bis(butanoyloxy)-2-{[3-(1H-indol-3-yl)propanoyl]oxy}oxan-3-yl butanoate]
[1]
  Assay 2 (SIF) (% @ Remaining 4 hours): A (<25% of the tested compound remaining)
[2]
  Assay 1 (SGF) (% Remaining @ 1 hour): B (25-75% of the tested compound remaining)

## CCC(=O)OC[C@H]1OC(O)[C@H](OC(=O)CC)[C@@H](OC(=O)CC)[C@@H]1OC(=O)CC (stereo partly drawn) [Compound 110, [(2R,3R,4S,5R)-6-hydroxy-3,4,5-tris(propanoyloxy)oxan-2-yl]methyl propanoate]
[1]
  Assay 2 (SIF) (% @ Remaining 4 hours): A (<25% of the tested compound remaining)
[2]
  Assay 1 (SGF) (% Remaining @ 1 hour): C (>75% of the tested compound remaining)

## CCC(=O)O[C@H]1[C@H](OC(=O)CC)[C@H](OC(=O)Cc2c[nH]c3ccccc23)O[C@@H](C)[C@H]1OC(=O)CC [Compound 118, (2S,3S,4R,5R,6S)-2-{[2-(1H-indol-3-yl)acetyl]oxy}-6-methyl-4,5-bis(propanoyloxy)oxan-3-yl propanoate]
[1]
  Assay 2 (SIF) (% @ Remaining 4 hours): A (<25% of the tested compound remaining)
[2]
  Assay 1 (SGF) (% Remaining @ 1 hour): C (>75% of the tested compound remaining)

## CCC(=O)OC1O[C@@H](C)[C@@H](OC(=O)CC)[C@@H](OC(=O)CC)[C@@H]1OC(=O)CC (stereo partly drawn) [Compound 125, (3S,4R,5R,6S)-6-methyl-3,4,5-tris(propanoyloxy)oxan-2-yl propanoate]
[1]
  Assay 2 (SIF) (% @ Remaining 4 hours): A (<25% of the tested compound remaining)
[2]
  Assay 1 (SGF) (% Remaining @ 1 hour): C (>75% of the tested compound remaining)

## CCC(=O)O[C@@H]1[C@@H](OC(=O)CC)[C@@H](OC(=O)CC)CO[C@H]1O [Compound 127, (3S,4S,5R,6R)-6-hydroxy-4,5-bis(propanoyloxy)oxan-3-yl propanoate]
[1]
  Assay 2 (SIF) (% @ Remaining 4 hours): B (25-75% of the tested compound remaining)
[2]
  Assay 1 (SGF) (% Remaining @ 1 hour): C (>75% of the tested compound remaining)

## CCC(=O)O[C@@H]1[C@@H](OC(=O)CC)[C@H](OC(=O)CC)CO[C@H]1O [Compound 129, (2R,3R,4S,5R)-2-hydroxy-4,5-bis(propanoyloxy)oxan-3-yl propanoate]
[1]
  Assay 2 (SIF) (% @ Remaining 4 hours): A (<25% of the tested compound remaining)
[2]
  Assay 1 (SGF) (% Remaining @ 1 hour): C (>75% of the tested compound remaining)

## CCC(=O)OC1OC[C@@H](OC(=O)CC)[C@H](OC(=O)CC)[C@H]1OC(=O)CC (stereo partly drawn) [Compound 130, (3R,4S,5R)-3,4,5-tris(propanoyloxy)oxan-2-yl propanoate]
[1]
  Assay 2 (SIF) (% @ Remaining 4 hours): A (<25% of the tested compound remaining)
[2]
  Assay 1 (SGF) (% Remaining @ 1 hour): C (>75% of the tested compound remaining)

## CCCC(=O)O[C@@H]1[C@H](OC(=O)CCC)[C@H](C)OC(O)[C@H]1OC(=O)CCC (stereo partly drawn) [Compound 136, (3S,4R,5R,6S)-4,5-bis(butanoyloxy)-2-hydroxy-6-methyloxan-3-yl butanoate]
[1]
  Assay 2 (SIF) (% @ Remaining 4 hours): A (<25% of the tested compound remaining)
[2]
  Assay 1 (SGF) (% Remaining @ 1 hour): C (>75% of the tested compound remaining)

## CCCC(=O)O[C@H]1[C@@H](OC(=O)CCC)COC(O)[C@@H]1OC(=O)CCC (stereo partly drawn) [Compound 151, (3S,4S,5R)-4,5-bis(butanoyloxy)-6-hydroxyoxan-3-yl butanoate]
[1]
  Assay 2 (SIF) (% @ Remaining 4 hours): A (<25% of the tested compound remaining)
[2]
  Assay 1 (SGF) (% Remaining @ 1 hour): C (>75% of the tested compound remaining)

## CCCC(=O)Oc1cc(OC(=O)CCC)c2c(=O)c(OC(=O)CCC)c(-c3cc(OC(=O)CCC)c(OC(=O)CCC)c(OC(=O)CCC)c3)oc2c1 [Compound 169, 3,5-bis(butanoyloxy)-4-oxo-2-[3,4,5-tris(butanoyloxy)phenyl]-4H-chromen-7-yl butanoate]
[1]
  Assay 2 (SIF) (% @ Remaining 4 hours): C (>75% of the tested compound remaining)
[2]
  Assay 1 (SGF) (% Remaining @ 1 hour): C (>75% of the tested compound remaining)

## CCCC(=O)Oc1cc(OC(=O)CCC)c2c(=O)cc(-c3ccc(OC(=O)CCC)c(OC(=O)CCC)c3)oc2c1 [Compound 171, 2-[3,4-bis(butanoyloxy)phenyl]-5-(butanoyloxy)-4-oxo-4H-chromen-7-yl butanoate]
[1]
  Assay 2 (SIF) (% @ Remaining 4 hours): A (<25% of the tested compound remaining)
[2]
  Assay 1 (SGF) (% Remaining @ 1 hour): C (>75% of the tested compound remaining)

## CC(=O)Oc1ccc(-c2oc3cc(OC(C)=O)cc(OC(C)=O)c3c(=O)c2OC(C)=O)cc1 [Compound 177, [4-(3,5,7-triacetoxy-4-oxo-chromen-2-yl)phenyl] acetate]
[2]
  Assay 1 (SGF) (% Remaining @ 1 hour): C (>75% of the tested compound remaining)

## CCC(=O)Oc1cc(OC(=O)CC)c2c(c1)O[C@H](c1cc(OC(=O)CC)c(OC(=O)CC)c(OC(=O)CC)c1)[C@H](OC(=O)c1cc(OC(=O)CC)c(OC(=O)CC)c(OC(=O)CC)c1)C2 [Compound 195, [(2R,3R)-5,7-di(propanoyloxy)-2-[3,4,5-tri(propanoyloxy)phenyl]chroman-3-yl] 3,4,5-tri(propanoyloxy)benzoate]
[2]
  Assay 1 (SGF) (% Remaining @ 1 hour): C (>75% of the tested compound remaining)

From patent publication US12115178B2, “Acylated active agents and methods of their use for the treatment of autoimmune disorders” (Flagship Pioneering Innovations V, Inc., priority 2018, dated 2024)
